Experimental data taken from US11986532B2 (Arvinas Operations, Inc., priority 2021, dated 2024).

Molecular target: T1, BCL6 (Homo sapiens, UniProt P41182)
T1 construct: endogenous in cells; host or cells: T47D breast cancer epithelial cells
Assay: Immunofluorescence protocol for high content imaging of BCL6 (degradation) in T47D cells, 3 days compound treatment
Type: cell-based
Conditions: for Dmax: T47D, read-out: Mean Dmax (%)** category; for DC50: read-out: Mean DC50 (nM)* category
How it was run: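 High content immunofluorescence imaging (10×, 4 fields/well) of BCL6 using rabbit primary antibody, Alexa-488 secondary, cell mask and Hoechst nuclear stain after PFA fixation. Before staining, T47D cells (7K/well) were exposed for 3 days at 37° C to 3-fold serial dilutions of compound, top final concentration 0.1 or 1 μM.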

| Compound | Dmax [%] | DC50 [nM] | Mean Dmax (%)** category |
| --- | --- | --- | --- |
| CNC(=O)COc1cc2cc(Nc3nc(N4CCC(OC5CCC6(CC5)CN(c5ccc7c(c5C)CN(C5CCC(=O)NC5=O)C7=O)C6)CC4)ncc3Cl)ccc2n(C(C)C)c1=O (stereo not drawn) [Compound 402, 2-{[6-({5-chloro-2-[4-({2-[2-(2,6-dioxopiperidin-3-yl)-4-methyl-1-oxo-2,3-dihydro-1H-isoindol-5-yl]-2-azaspiro[3.5]nonan-7-yl}oxy)piperidin-1-yl]pyrimidin-4-yl}amino)-2-oxo-1-(propan-2-yl)-1,2-dihydroquinolin-3-yl]oxy}-N-methylacetamide] | ≥ 70 | < 10 |  |
| CNC(=O)COc1cc2cc(Nc3nc(N4CCC(CN5CCN(c6ccc7c(c6C)C(=O)N(C6CCC(=O)NC6=O)C7=O)CC5)CC4)ncc3Cl)ccc2n(C(C)C)c1=O (stereo not drawn) [Compound 403, 2-{[6-({5-chloro-2-[4-({4-[2-(2,6-dioxopiperidin-3-yl)-4-methyl-1,3-dioxo-2,3-dihydro-1H-isoindol-5-yl]piperazin-1-yl}methyl)piperidin-1-yl]pyrimidin-4-yl}amino)-2-oxo-1-(propan-2-yl)-1,2-dihydroquinolin-3-yl]oxy}-N-methylacetamide] | 50 to 70 | < 10 |  |
| CNC(=O)COc1cc2cc(Nc3nc(N4CCC(CN5CCN(c6ccc7c(c6)C(=O)N(C6CCC(=O)NC6=O)C7=O)CC5)CC4)ncc3Cl)ccc2n(C(C)C)c1=O (stereo not drawn) [Compound 404, 2-{[6-({5-chloro-2-[4-({4-[2-(2,6-dioxopiperidin-3-yl)-1,3-dioxo-2,3-dihydro-1H-isoindol-5-yl]piperazin-1-yl}methyl)piperidin-1-yl]pyrimidin-4-yl}amino)-2-oxo-1-(propan-2-yl)-1,2-dihydroquinolin-3-yl]oxy}-N-methylacetamide] | 50 to 70 | 10 to 50 |  |
| CNC(=O)COc1cc2cc(Nc3nc(N4CCC(O[C@H]5C[C@H](N6CCC7(CN(c8ccc9c(c8F)CN(C8CCC(=O)NC8=O)C9=O)C7)C6)C5)CC4)ncc3Cl)ccc2n(C(C)C)c1=O (stereo partly drawn) [Compound 405, 2-({6-[(5-chloro-2-{4-[(1r,3r)-3-{2-[2-(2,6-dioxopiperidin-3-yl)-4-fluoro-1-oxo-2,3-dihydro-1H-isoindol-5-yl]-2,6-diazaspiro[3.4]octan-6-yl}cyclobutoxy]piperidin-1-yl}pyrimidin-4-yl)amino]-2-oxo-1-(propan-2-yl)-1,2-dihydroquinolin-3-yl}oxy)-N-methylacetamide] | ≥ 70 | < 10 |  |
| CNC(=O)COc1cc2cc(Nc3nc(N4CCC(O[C@H]5C[C@H](N6C7CCC6CN(c6ccc8c(c6F)CN(C6CCC(=O)NC6=O)C8=O)C7)C5)CC4)ncc3Cl)ccc2n(C(C)C)c1=O (stereo partly drawn) [Compound 406, 2-({6-[(5-chloro-2-{4-[(1r,3r)-3-{3-[2-(2,6-dioxopiperidin-3-yl)-4-fluoro-1-oxo-2,3-dihydro-1H-isoindol-5-yl]-3,8-diazabicyclo [3.2.1]octan-8-yl}cyclobutoxy]piperidin-1-yl}pyrimidin-4-yl)amino]-2-oxo-1-(propan-2-yl)-1,2-dihydroquinolin-3-yl}oxy)-N-methylacetamide] | 50 to 70 | < 10 |  |
| CNC(=O)COc1cc2cc(Nc3nc(N4CCC(O[C@H]5C[C@H](N6CCC(c7cc(OC)c8c(c7F)CN([C@H]7CCC(=O)NC7=O)C8=O)CC6)C5)CC4)ncc3Cl)ccc2n(C(C)C)c1=O [Compound 407, 2-({6-[(5-chloro-2-{4-[(1r,3r)-3-(4-{2-[(3S)-2,6-dioxopiperidin-3-yl]-4-fluoro-7-methoxy-1-oxo-2,3-dihydro-1H-isoindol-5-yl}piperidin-1-yl)cyclobutoxy]piperidin-1-yl}pyrimidin-4-yl)amino]-2-oxo-1-(propan-2-yl)-1,2-dihydroquinolin-3-yl}oxy)-N-methylacetamide] | ≥ 70 | < 10 |  |
| CNC(=O)COc1cc2cc(Nc3nc(N4CCC(O[C@H]5C[C@H](N6CCN(c7cc8c(cc7F)C(=O)N(C7CCC(=O)NC7=O)C8=O)[C@H](C)C6)C5)CC4)ncc3Cl)ccc2n(C(C)C)c1=O (stereo partly drawn) [Compound 408, 2-({6-[(5-chloro-2-{4-[(1r,3r)-3-[(3R)-4-[2-(2,6-dioxopiperidin-3-yl)-6-fluoro-1,3-dioxo-2,3-dihydro-1H-isoindol-5-yl]-3-methylpiperazin-1-yl]cyclobutoxy]piperidin-1-yl}pyrimidin-4-yl)amino]-2-oxo-1-(propan-2-yl)-1,2-dihydroquinolin-3-yl}oxy)-N-methylacetamide] | 50 to 70 | 50 to 100 |  |
| CNC(=O)COc1cc2cc(Nc3nc(N4CCC(O[C@H]5C[C@H](N6CCC(c7c(OC)cc8c(c7F)CN(C7CCC(=O)NC7=O)C8=O)CC6)C5)CC4)ncc3Cl)ccc2n(C(C)C)c1=O (stereo partly drawn) [Compound 409, 2-({6-[(5-chloro-2-{4-[(1r,3r)-3-{4-[2-(2,6-dioxopiperidin-3-yl)-4-fluoro-6-methoxy-1-oxo-2,3-dihydro-1H-isoindol-5-yl]piperidin-1-yl}cyclobutoxy]piperidin-1-yl}pyrimidin-4-yl)amino]-2-oxo-1-(propan-2-yl)-1,2-dihydroquinolin-3-yl}oxy)-N-methylacetamide] | ≥ 70 | < 10 |  |
| CNC(=O)COc1cc2cc(Nc3nc(N4CCC(O[C@H]5C[C@H](N6CCC7(CC6)CN(c6ccc8c(c6F)CN(C6CCC(=O)NC6=O)C8=O)C7)C5)CC4)ncc3Cl)ccc2n(C(C)C)c1=O (stereo partly drawn) [Compound 410, 2-({6-[(5-chloro-2-{4-[(1r,3r)-3-{2-[2-(2,6-dioxopiperidin-3-yl)-4-fluoro-1-oxo-2,3-dihydro-1H-isoindol-5-yl]-2,7-diazaspiro[3.5]nonan-7-yl}cyclobutoxy]piperidin-1-yl}pyrimidin-4-yl)amino]-2-oxo-1-(propan-2-yl)-1,2-dihydroquinolin-3-yl}oxy)-N-methylacetamide] | ≥ 70 | < 10 |  |
| CNC(=O)COc1cc2cc(Nc3nc(N4CCC(O[C@H]5C[C@H](N6CCC(c7ccc8c(c7F)CN(C7CCC(=O)NC7=O)C8=O)CC6)C5)CC4)ncc3Cl)ccc2n(C2CCCCC2)c1=O (stereo partly drawn) [Compound 411, 2-({6-[(5-chloro-2-{4-[(1r,3r)-3-{4-[2-(2,6-dioxopiperidin-3-yl)-4-fluoro-1-oxo-2,3-dihydro-1H-isoindol-5-yl]piperidin-1-yl}cyclobutoxy]piperidin-1-yl}pyrimidin-4-yl)amino]-1-cyclohexyl-2-oxo-1,2-dihydroquinolin-3-yl}oxy)-N-methylacetamide] | ≥ 70 | < 10 |  |
| CNC(=O)COc1cc2cc(Nc3nc(N4CCC(O[C@H]5C[C@H](N6CCN(c7ccc8c(c7Cl)C(=O)N(C7CCC(=O)NC7=O)C8=O)CC6)C5)CC4)ncc3Cl)ccc2n(C(C)C)c1=O (stereo partly drawn) [Compound 412, 2-({6-[(5-chloro-2-{4-[(1r,3r)-3-{4-[4-chloro-2-(2,6-dioxopiperidin-3-yl)-1,3-dioxo-2,3-dihydro-1H-isoindol-5-yl]piperazin-1-yl}cyclobutoxy]piperidin-1-yl}pyrimidin-4-yl)amino]-2-oxo-1-(propan-2-yl)-1,2-dihydroquinolin-3-yl}oxy)-N-methylacetamide] | 50 to 70 | 10 to 50 |  |
| CNC(=O)COc1cc2cc(Nc3nc(N4CCC(O[C@H]5C[C@H](N6CCN(c7ccc8c(c7F)C(=O)N(C7CCC(=O)NC7=O)C8=O)CC6)C5)CC4)ncc3Cl)ccc2n(C(C)C)c1=O (stereo partly drawn) [Compound 413, 2-({6-[(5-chloro-2-{4-[(1r,3r)-3-{4-[2-(2,6-dioxopiperidin-3-yl)-4-fluoro-1,3-dioxo-2,3-dihydro-1H-isoindol-5-yl]piperazin-1-yl}cyclobutoxy]piperidin-1-yl}pyrimidin-4-yl)amino]-2-oxo-1-(propan-2-yl)-1,2-dihydroquinolin-3-yl}oxy)-N-methylacetamide] | < 50 | 10 to 50 |  |
| CNC(=O)COc1cc2cc(Nc3nc(N4CCC(O[C@H]5C[C@H](N6CCC7(CC6)CN(c6ccc8c(c6C)C(=O)N(C6CCC(=O)NC6=O)C8=O)C7)C5)CC4)ncc3Cl)ccc2n(C(C)C)c1=O (stereo partly drawn) [Compound 414, 2-({6-[(5-chloro-2-{4-[(1r,3r)-3-{2-[2-(2,6-dioxopiperidin-3-yl)-4-methyl-1,3-dioxo-2,3-dihydro-1H-isoindol-5-yl]-2,7-diazaspiro[3.5]nonan-7-yl}cyclobutoxy]piperidin-1-yl}pyrimidin-4-yl)amino]-2-oxo-1-(propan-2-yl)-1,2-dihydroquinolin-3-yl}oxy)-N-methylacetamide] | ≥ 70 | < 10 |  |
| CNC(=O)COc1cc2cc(Nc3nc(N4CCC(O[C@H]5C[C@H](N6CCN(c7ccc8c(n7)CN(C7CCC(=O)NC7=O)C8=O)[C@H](C)C6)C5)CC4)ncc3Cl)ccc2n(C(C)C)c1=O (stereo partly drawn) [Compound 415, 2-({6-[(5-chloro-2-{4-[(1r,3r)-3-[(3R)-4-[6-(2,6-dioxopiperidin-3-yl)-5-oxo-5H,6H,7H-pyrrolo [3,4-b]pyridin-2-yl]-3-methylpiperazin-1-yl]cyclobutoxy]piperidin-1-yl}pyrimidin-4-yl)amino]-2-oxo-1-(propan-2-yl)-1,2-dihydroquinolin-3-yl}oxy)-N-methylacetamide] |  | < 10 | A (A >= 70) |
| CNC(=O)COc1cc2cc(Nc3nc(N4CCC(O[C@H]5C[C@H](N6CCN(c7ccc8c(c7C)CN(C7CCC(=O)NC7=O)C8=O)CC6)C5)CC4)ncc3Cl)ccc2n(C(C)C)c1=O (stereo partly drawn) [Compound 416, 2-({6-[(5-chloro-2-{4-[(1r,3r)-3-{4-[2-(2,6-dioxopiperidin-3-yl)-4-methyl-1-oxo-2,3-dihydro-1H-isoindol-5-yl]piperazin-1-yl}cyclobutoxy]piperidin-1-yl}pyrimidin-4-yl)amino]-2-oxo-1-(propan-2-yl)-1,2-dihydroquinolin-3-yl}oxy)-N-methylacetamide] | ≥ 70 | < 10 |  |
